Measured values as given in ChEMBL document CHEMBL1201862, “PubChem BioAssay data set” (2004).
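Method: 48-hour compound exposure of cells in 96-well plates, five concentrations, linear interpolation of endpoints. GI50 is the concentration that inhibits growth by half.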 Activity calls are given as the source filed them. Rule as the data show it: active = GI50 up to about 1.1 µM and inactive = higher.

Key:
Assay in all cases: DTP human tumour cell line panel, 48 h
[1] = system: TK-10
[2] = system: HCC 2998
[3] = system: OVCAR-8
[4] = system: OVCAR-4
[5] = system: ACHN
[6] = system: UACC-62
[7] = system: SK-MEL-28
[8] = system: NCI-H226
[9] = system: HOP-92
[10] = system: LOX IMVI
[11] = system: M14
[12] = system: HOP-62
[13] = system: KM12
[14] = system: RXF 393
[15] = system: 786-0
[16] = system: OVCAR-5
[17] = system: SN12C
[18] = system: MOLT-4
[19] = system: Malme-3M
[20] = system: NCI-H23

**Q.** `N=C(N)NS(=O)(=O)c1ccc(NC(=O)c2ccc3nc4ccccc4c(O)c3c2)cc1` was tested. Which GI50 [1] did it give?
**A.** > 100 µM (inactive)

**Q.** What about the GI50 [2] of the same molecule?
**A.** > 100 µM (inactive)

**Q.** What about the GI50 [3] of the same molecule?
**A.** > 100 µM (inactive)

**Q.** What about the GI50 [4] of the same molecule?
**A.** > 100 µM (inactive)

**Q.** What about the GI50 [5] of the same molecule?
**A.** > 100 µM (inactive)

**Q.** What about the GI50 [6] of the same molecule?
**A.** > 100 µM (inactive)

**Q.** What about the GI50 [7] of the same molecule?
**A.** > 100 µM (inactive)

**Q.** And the GI50 [8]?
**A.** > 100 µM (inactive)

**Q.** What about the GI50 [9] of the same molecule?
**A.** > 100 µM (inactive)

**Q.** What about the GI50 [10] of the same molecule?
**A.** 49.7 µM (inactive)

**Q.** What about the GI50 [11] of the same molecule?
**A.** > 100 µM (inactive)

**Q.** And the GI50 [12]?
**A.** > 100 µM (inactive)

**Q.** And the GI50 [13]?
**A.** > 100 µM (inactive)

**Q.** What about the GI50 [14] of the same molecule?
**A.** > 100 µM (inactive)

**Q.** And the GI50 [15]?
**A.** > 100 µM (inactive)

**Q.** What about the GI50 [16] of the same molecule?
**A.** > 100 µM (inactive)

**Q.** What about the GI50 [17] of the same molecule?
**A.** > 100 µM (inactive)

**Q.** What about the GI50 [18] of the same molecule?
**A.** > 100 µM (inactive)

**Q.** What about the GI50 [19] of the same molecule?
**A.** > 100 µM (inactive)

**Q.** And the GI50 [20]?
**A.** > 100 µM (inactive)

**Q.** Which results are given for `CCC1(O)C(=O)OCc2c1cc1n(c2=O)Cc2cc3ccc(C=O)cc3nc2-1` (stereo not given)?
**A.** GI50 [1]: 54.3 µM (inactive); GI50 [2]: 4.62 µM (inactive); GI50 [3]: 1.96 µM (inactive); GI50 [4]: 3.33 µM (inactive); GI50 [5]: 0.713 µM (active); GI50 [6]: 0.566 µM (active); GI50 [7]: 27.1 µM (inactive); GI50 [8]: 1.58 µM (inactive); GI50 [9]: 11.1 µM (inactive); GI50 [10]: 0.472 µM (active); GI50 [11]: 1.12 µM (active); GI50 [12]: 0.294 µM (active); GI50 [13]: > 86.5 µM (inactive); GI50 [14]: 2.2 µM (inactive); GI50 [15]: 0.608 µM (active); GI50 [16]: 7.29 µM (inactive); GI50 [17]: 0.387 µM (active); GI50 [18]: 0.132 µM (active); GI50 [19]: 4.33 µM (inactive); GI50 [20]: 2.07 µM (inactive)

**Q.** For `COc1ccc(CC(C)N)cc1` (stereo not given) [PARA-METHOXYAMPHETAMINE], which GI50 [1] is on record?
**A.** > 100 µM (inactive)

**Q.** And the GI50 [2]?
**A.** > 100 µM (inactive)

**Q.** And the GI50 [3]?
**A.** > 100 µM (inactive)

**Q.** What about the GI50 [4] of the same molecule?
**A.** > 100 µM (inactive)

**Q.** What about the GI50 [5] of the same molecule?
**A.** > 100 µM (inactive)

**Q.** And the GI50 [6]?
**A.** > 100 µM (inactive)

**Q.** And the GI50 [7]?
**A.** > 100 µM (inactive)

**Q.** What about the GI50 [8] of the same molecule?
**A.** > 100 µM (inactive)

**Q.** What about the GI50 [9] of the same molecule?
**A.** > 100 µM (inactive)

**Q.** What about the GI50 [10] of the same molecule?
**A.** > 100 µM (inactive)

**Q.** What about the GI50 [11] of the same molecule?
**A.** > 100 µM (inactive)

**Q.** And the GI50 [12]?
**A.** > 100 µM (inactive)

**Q.** And the GI50 [13]?
**A.** > 100 µM (inactive)

**Q.** What about the GI50 [14] of the same molecule?
**A.** > 100 µM (inactive)

**Q.** What about the GI50 [15] of the same molecule?
**A.** > 100 µM (inactive)

**Q.** What about the GI50 [16] of the same molecule?
**A.** > 100 µM (inactive)

**Q.** What about the GI50 [17] of the same molecule?
**A.** > 100 µM (inactive)

**Q.** And the GI50 [18]?
**A.** > 100 µM (inactive)

**Q.** What about the GI50 [19] of the same molecule?
**A.** > 100 µM (inactive)

**Q.** And the GI50 [20]?
**A.** > 100 µM (inactive)

**Q.** For `c1ccc2c3nc(C4CCCC4)nc-3c(NC3CCCC3)[nH]c2c1`, which GI50 [1] is on record?
**A.** 35.2 µM (inactive)

**Q.** What about the GI50 [2] of the same molecule?
**A.** 6.76 µM (inactive)

**Q.** What about the GI50 [3] of the same molecule?
**A.** 6.87 µM (inactive)

**Q.** And the GI50 [4]?
**A.** 14.4 µM (inactive)

**Q.** What about the GI50 [5] of the same molecule?
**A.** 25.7 µM (inactive)

**Q.** And the GI50 [6]?
**A.** 14 µM (inactive)

**Q.** What about the GI50 [7] of the same molecule?
**A.** 13 µM (inactive)

**Q.** And the GI50 [8]?
**A.** 24.7 µM (inactive)

**Q.** What about the GI50 [9] of the same molecule?
**A.** 19.3 µM (inactive)

**Q.** What about the GI50 [10] of the same molecule?
**A.** 15.8 µM (inactive)

**Q.** And the GI50 [11]?
**A.** 2.98 µM (inactive)

**Q.** And the GI50 [12]?
**A.** 19.1 µM (inactive)

**Q.** And the GI50 [13]?
**A.** 7.08 µM (inactive)

**Q.** What about the GI50 [14] of the same molecule?
**A.** 14.7 µM (inactive)

**Q.** And the GI50 [15]?
**A.** 8.07 µM (inactive)

**Q.** And the GI50 [16]?
**A.** 22.5 µM (inactive)

**Q.** And the GI50 [17]?
**A.** 32.7 µM (inactive)

**Q.** What about the GI50 [18] of the same molecule?
**A.** 6 µM (inactive)

**Q.** And the GI50 [19]?
**A.** 16.6 µM (inactive)

**Q.** And the GI50 [20]?
**A.** 15.7 µM (inactive)

**Q.** How did the GI50 [1] turn out when `COC(=O)CN1c2nc(C#N)c(C#N)nc2N(CC(=O)OC)c2nc(C#N)c(C#N)nc21` was run?
**A.** 2.5 µM (inactive)

**Q.** And the GI50 [2]?
**A.** 16.7 µM (inactive)

**Q.** And the GI50 [3]?
**A.** 2.37 µM (inactive)

**Q.** And the GI50 [4]?
**A.** 3.1 µM (inactive)

**Q.** And the GI50 [5]?
**A.** 1.59 µM (inactive)

**Q.** And the GI50 [6]?
**A.** 5.45 µM (inactive)

**Q.** What about the GI50 [7] of the same molecule?
**A.** 3.74 µM (inactive)

**Q.** And the GI50 [8]?
**A.** 38.8 µM (inactive)

**Q.** And the GI50 [9]?
**A.** 1.87 µM (inactive)

**Q.** And the GI50 [10]?
**A.** 2.2 µM (inactive)

**Q.** What about the GI50 [11] of the same molecule?
**A.** 1.84 µM (inactive)

**Q.** And the GI50 [12]?
**A.** 16.5 µM (inactive)

**Q.** What about the GI50 [13] of the same molecule?
**A.** 8.22 µM (inactive)

**Q.** And the GI50 [14]?
**A.** 2.91 µM (inactive)

**Q.** What about the GI50 [15] of the same molecule?
**A.** 2.09 µM (inactive)

**Q.** And the GI50 [16]?
**A.** 8 µM (inactive)

**Q.** What about the GI50 [17] of the same molecule?
**A.** 3.34 µM (inactive)

**Q.** And the GI50 [18]?
**A.** 0.479 µM (active)

**Q.** What about the GI50 [19] of the same molecule?
**A.** 0.301 µM (active)

**Q.** What about the GI50 [20] of the same molecule?
**A.** 2.99 µM (inactive)
